Results as given in patent US10173981B2, “Picolinamides as fungicides” (DOW AGROSCIENCES LLC, priority 2014, dated 2019).
Read-outs that look alike come from different tables or passages of the source.

Experiments:
Assay type in all cases: in vivo
Puccinia triticina = experiment: Fungicidal activity: wheat brown rust (PUCCRT), wheat seedlings; details: for pest or weed control at 100 ppm: High volume, wheat; for pest or weed control at 121.5 g/ha: Low Volume Cereal Activity at 121.5 g/Ha
Experimental: All fungicides were evaluated using the aforementioned method for their activity vs. all target diseases, unless stated otherwise. Wheat leaf blotch and brown rust activity were also evaluated using track spray applications, in which case the fungicides were formulated as EC formulations, containing 0.1% Trycol 5941 in the spray solutions. Wheat plants (variety Yuma) were grown from seed in a greenhouse in 50% mineral soil/50% soil-less Metro mix until the first leaf was fully emerged, with 7-10 seedlings per pot. These plants were inoculated with an aqueous spore suspension of Zymoseptoria tritici either prior to or after fungicide treatments. After inoculation the plants were kept in 100% relative humidity (one day in a dark dew chamber followed by two to three days in a lighted dew chamber at 20° C.) to permit spores to germinate and infect the leaf. The plants were then transferred to a greenhouse set at 20° C. for disease to develop. When disease symptoms were fully expressed on the 1st leaves of untreated plants, infection levels were assessed on a scale of 0 to 100 percent disease severity. Percent disease control was calculated using the ratio of disease severity on treated plants relative to untreated plants. Example B: Evaluation of Fungicidal Activity: Wheat Brown Rust (Puccinia triticina; Synonym: Puccinia recondita f. sp. tritici; Bayer code PUCCRT) Wheat plants (variety Yuma) were grown from seed in a greenhouse in 50% mineral soil/50% soil-less Metro mix until the first leaf was fully emerged, with 7-10 seedlings per pot. These plants were inoculated with an aqueous spore suspension of Puccinia triticina either prior to or after fungicide treatments. […] The plants were then transferred to a greenhouse set at 24° C. for disease to develop. Fungicide formulation, application and disease assessment followed the procedures as described in the Example A.

Zymoseptoria tritici = experiment: Fungicidal activity: leaf blotch of wheat (SEPTTR), wheat seedlings; details: for pest or weed control at 100 ppm: High volume, wheat; for pest or weed control at 121.5 g/ha: Low Volume Cereal Activity at 121.5 g/Ha
Experimental: All fungicides were evaluated using the aforementioned method for their activity vs. all target diseases, unless stated otherwise. Wheat leaf blotch and brown rust activity were also evaluated using track spray applications, in which case the fungicides were formulated as EC formulations, containing 0.1% Trycol 5941 in the spray solutions. Wheat plants (variety Yuma) were grown from seed in a greenhouse in 50% mineral soil/50% soil-less Metro mix until the first leaf was fully emerged, with 7-10 seedlings per pot. These plants were inoculated with an aqueous spore suspension of Zymoseptoria tritici either prior to or after fungicide treatments. After inoculation the plants were kept in 100% relative humidity (one day in a dark dew chamber followed by two to three days in a lighted dew chamber at 20° C.) to permit spores to germinate and infect the leaf. The plants were then transferred to a greenhouse set at 20° C. for disease to develop. When disease symptoms were fully expressed on the 1st leaves of untreated plants, infection levels were assessed on a scale of 0 to 100 percent disease severity. Percent disease control was calculated using the ratio of disease severity on treated plants relative to untreated plants.

Pyricularia oryzae = experiment: whole plant or invertebrate; details: read-out: PYRIOR (% control rating)
Leptosphaeria nodorum = experiment: Fungicidal activity: wheat glume blotch (LEPTNO), wheat seedlings; details: Parastagonospora nodorum, 1DP, high volume, read-out: LEPTNO (% control rating)
[1] = system: Colletotrichum lagenarium; experiment: Fungicidal activity: cucumber anthracnose (COLLLA), cucumber seedlings; details: Colletotrichum orbiculare, 1DP, high volume, read-out: COLLLA (% control rating)
Cercospora beticola = experiment: Fungicidal activity: leaf spot of sugar beets (CERCBE); details: 1DP, high volume, sugar beet, read-out: CERCBE (% control rating)
Rhyncosporium secalis = experiment: Fungicidal activity: barley scald (RHYNSE), barley seedlings; details: Hordeum vulgare, 1DP, high volume, read-out: RHYNSE (% control rating)
Phakopsora pachyrhizi = experiment: Fungicidal activity: Asian soybean rust (PHAKPA), soybean seedlings; details: High volume; for pest or weed control at 25 ppm: Phakopsora pachyrhizi
Venturia inaequalis = experiment: Fungicidal activity: apple scab (VENTIN), apple seedlings; details: 1DP, high volume, read-out: VENTIN (% control rating)
Alternaria solani = experiment: Fungicidal activity: tomato early blight (ALTESO), tomato plants; details: 1DP, high volume, read-out: ALTESO (% control rating)
[2] = 24 h, 1 Day Protectant, read-out: PUCCRT 1 DP (Wheat Brown Rust, 1 Day Protectant)
[3] = 72 h, 3 Day Curative, read-out: PUCCRT 3 DC (Wheat Brown Rust, 3 Day Curative)
[4] = 24 h, 1 Day Protectant, read-out: SEPTTR 1 DP (Wheat Leaf Blotch, 1 Day Protectant)
[5] = 72 h, 3 Day Curative, read-out: SEPTTR 3 DC (Wheat Leaf Blotch, 3 Day Curative)
[6] = 24 h, 1 day protectant, read-out: PHAKPA 1 DP (% control rating)
[7] = 72 h, 3 day curative, read-out: PHAKPA 3 DC (% control rating)

COc1cc(F)ccc1[C@@H](Oc1ccccc1)[C@H](C)OC(=O)[C@H](C)NC(=O)c1nccc(OC)c1O [Example 178]
pest or weed control at 100 ppm (Puccinia triticina; 24 h, 1 day protectant, read-out: PUCCRT 1 DP (% control rating)): > 80% | pest or weed control at 100 ppm (Puccinia triticina; 72 h, 3 day curative, read-out: PUCCRT 3 DC (% control rating)): < 80% | pest or weed control at 100 ppm (Zymoseptoria tritici; 24 h, 1 day protectant, read-out: SEPTTR 1 DP (% control rating)): > 80% | pest or weed control at 100 ppm (Zymoseptoria tritici; 72 h, 3 day curative, read-out: SEPTTR 3 DC (% control rating)): > 80%

COc1ccnc(C(=O)N[C@@H](C)C(=O)O[C@@H](C)C(Oc2ccc(F)cc2)c2ccc(F)cc2)c1OC(C)=O (stereo partly shown) [Example 236]
pest or weed control at 100 ppm (Pyricularia oryzae): > 80% | pest or weed control at 100 ppm (Leptosphaeria nodorum): > 80% | pest or weed control at 100 ppm [1]: < 80% | pest or weed control at 100 ppm (Cercospora beticola): > 80% | pest or weed control at 100 ppm (Rhyncosporium secalis): > 80% | pest or weed control at 121.5 g/ha (Puccinia triticina; [2]): > 80% | pest or weed control at 121.5 g/ha (Puccinia triticina; [3]): > 80% | pest or weed control at 121.5 g/ha (Zymoseptoria tritici; [4]): > 80% | pest or weed control at 121.5 g/ha (Zymoseptoria tritici; [5]): > 80% | pest or weed control at 25 ppm (Phakopsora pachyrhizi; [6]): > 80% | pest or weed control at 25 ppm (Phakopsora pachyrhizi; [7]): < 0% | pest or weed control at 100 ppm (Venturia inaequalis): > 80% | pest or weed control at 100 ppm (Alternaria solani): < 80%

COc1cc(C)ccc1[C@@H](Oc1ccccc1)[C@H](C)OC(=O)[C@H](C)NC(=O)c1nccc(OC)c1OC(C)=O [Example 269]
pest or weed control at 121.5 g/ha (Puccinia triticina; [2]): > 80% | pest or weed control at 121.5 g/ha (Puccinia triticina; [3]): > 80% | pest or weed control at 121.5 g/ha (Zymoseptoria tritici; [4]): > 80% | pest or weed control at 121.5 g/ha (Zymoseptoria tritici; [5]): > 80% | pest or weed control at 25 ppm (Phakopsora pachyrhizi; [6]): > 80% | pest or weed control at 25 ppm (Phakopsora pachyrhizi; [7]): < 80%

COc1cc(F)ccc1[C@@H](Oc1ccccc1)[C@H](C)OC(=O)[C@H](C)NC(=O)c1nccc(OC)c1OC(C)=O [Example 270]
PHAKPA 1 DP (% control rating) (Phakopsora pachyrhizi; 25 ppm, 1 day protectant): B (≤80) | PHAKPA 3 DC (% control rating) (Phakopsora pachyrhizi; 25 ppm, 3 day curative): D (≤0)
